What all share (assay type): cell-based
One experiment has as its system mouse Pan T cells. The experiment is described as follows: mTcell assay, cAMP, agonist NECA. The note with it: Mus musculus, T-cell. The source says:
Adenosine (Ado) in tumor microenvironment can inhibit T cell activity by signaling through A2A receptors and suppress cytokine secretion by T cells. […] Potential A2A antagonists or A2A/A2B dual antagonists can rescue T cells from this inhibition. Herein, we describe the in vitro system we established using Pan T cells from mouse spleens to screen potential A2A antagonists or A2A/A2B dual antagonists for their activity. The method described involves the use of CD3/CD28 pre-coated beads to stimulate Pan T cells purified from mouse splenocytes, combined with the addition of A2A agonist along with potential A2A or A2A/A2B dual antagonists to evaluate potentiation of T cell cytokine production.
Pan T-cells are isolated from black 6 mice by manual dissociation and purified using a Miltenyi Pan T-cell isolation kit. The isolated T-cells are activated in 96 well plates for 48 hours using anti-CD3/CD28 beads in T-cell proliferation media.
After 48 hours, the T-cells are pooled, counted and suspended in serum free media containing 0.1% BSA. The cells are plated at 50,000 cells per well in 10 ul of media and incubated for 2 hours at 37° C. Test compounds are dispensed into the wells at a 10-point dose response, starting at a concentration of 10 uM. […] The plates are incubated for 30 minutes at 37° C. and assayed for cAMP levels using the Cisbio cAMP Dynamic2 reagent kit by adding 10 ul of the kit reagents to each well. The plates are incubated for 1 hour at room temperature and the HTRF signal is read on an Envision plate reader. The raw data is analyzed in Genedata Screener and the resulting data is loaded into the database.

For a further experiment, the target named is T1, human A1 receptor (Homo sapiens, UniProt P30542).
T1 construct: expressed in transfected cells; host or cells: CHO
T1 sequence (P30542 1-326): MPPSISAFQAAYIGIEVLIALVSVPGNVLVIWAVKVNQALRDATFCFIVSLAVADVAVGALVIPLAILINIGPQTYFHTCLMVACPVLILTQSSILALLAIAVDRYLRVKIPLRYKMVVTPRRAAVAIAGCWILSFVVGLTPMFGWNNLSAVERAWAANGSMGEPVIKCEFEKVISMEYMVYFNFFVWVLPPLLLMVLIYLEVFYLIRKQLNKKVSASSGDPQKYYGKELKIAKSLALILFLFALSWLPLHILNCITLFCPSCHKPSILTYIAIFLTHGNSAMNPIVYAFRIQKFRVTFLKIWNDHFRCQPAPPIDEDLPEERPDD
Description: Functional A1 receptor activity, recombinant CHO cells, cAMP (HTRF), forskolin, agonist CPA. The note with it: recombinant CHO cells, forskolin, agonist CPA; read-out: Functional A1 receptor activity, CHO, cAMP, IC50. In outline:
(§1)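 CHO cells (hA1 or hA3) + forskolin + test cpd + agonist (CPA/A1, IB-MECA/A3), 30 min; HTRF cAMP readout; normalized vs inhibitor and DMSO controls, curve fit.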
(In general: Time-resolved FRET reads energy transfer from a long-lived donor to a nearby acceptor.)

The target in experiment [1] is T2, human A2A receptor (Homo sapiens, UniProt P29274). The experiment is described as follows: Human T cells, endogenous A2A receptor, cAMP, agonist NECA. The note with it: read-out: hTcell data, cAMP, IC50. Here is the method: The endogenous functional activity of the Gs-coupled human A2A receptor was measured in T cells, where this receptor is highly expressed. Determination of receptor activity was done by quantification of cAMP, which is a second messenger for adenosine receptors.
In short, human pan T cells were isolated from human PBMC (MACS Pan T Cell Isolation Kit, Miltenyi Biotec) that have been derived from fresh whole blood. The T cells were seeded in 384-well microtiter plates and treated with test compounds. […] Finally, HTRF reagents (cAMP Femto Kit, CisBio) were added to the wells, and after 1 h cellular cAMP levels were determined using the ENVISION (Perkin Elmer) plate reader.
The obtained raw data were normalized against the inhibitor control and the neutral control (DMSO) and the normalized data were fitted using Genedata Screener software.

The target of the next experiment is T3, human A3 receptor (Homo sapiens, UniProt P0DMS8).
T3 construct: expressed in transfected cells; host or cells: CHO
T3 sequence (P0DMS8 1-318): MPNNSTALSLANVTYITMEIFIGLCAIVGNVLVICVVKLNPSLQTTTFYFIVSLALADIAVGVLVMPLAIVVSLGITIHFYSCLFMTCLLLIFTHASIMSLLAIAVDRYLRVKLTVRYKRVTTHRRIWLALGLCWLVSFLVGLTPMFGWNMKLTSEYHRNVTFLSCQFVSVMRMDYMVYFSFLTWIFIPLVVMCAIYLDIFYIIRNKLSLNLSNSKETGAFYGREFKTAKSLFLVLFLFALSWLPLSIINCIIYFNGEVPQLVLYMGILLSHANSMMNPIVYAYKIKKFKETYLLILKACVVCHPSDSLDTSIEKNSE
The experiment is described as follows: Functional A3 receptor activity, recombinant CHO cells, cAMP (HTRF), forskolin, agonist IB-MECA. The note with it: recombinant CHO cells, forskolin, agonist IB-MECA; read-out: Functional A3 receptor activity, CHO, cAMP, IC50. The method in brief:
as §1

In experiment [2] the target is T2, human A2A receptor. The experiment is described as follows: Functional A2A receptor activity, recombinant HEK293 cells, cAMP (HTRF), agonist NECA. On the set-up: expressed in transfected cells; host or cells: HEK293. The note with it: read-out: Functional A2A receptor activity, HEK293, cAMP, IC50. In outline:
(§2)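 cAMP readout by HTRF after 30 min exposure of cells to forskolin, compound and agonist; data normalized vs inhibitor ctrl and DMSO (neutral) ctrl, then fitted.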

The target in a further experiment is T4, human A2B receptor (Homo sapiens, UniProt P29275).
T4 construct: expressed in transfected cells; host or cells: HEK293
T4 sequence (P29275 1-332): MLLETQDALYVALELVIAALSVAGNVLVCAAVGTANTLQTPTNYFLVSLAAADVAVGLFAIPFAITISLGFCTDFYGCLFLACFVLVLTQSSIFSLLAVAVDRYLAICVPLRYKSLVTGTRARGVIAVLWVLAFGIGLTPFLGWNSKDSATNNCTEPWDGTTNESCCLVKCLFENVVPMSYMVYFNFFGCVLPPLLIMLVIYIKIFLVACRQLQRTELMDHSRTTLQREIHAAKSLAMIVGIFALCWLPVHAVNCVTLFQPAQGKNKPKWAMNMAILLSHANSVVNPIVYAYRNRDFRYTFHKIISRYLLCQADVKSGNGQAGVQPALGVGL
Description: Functional A2B receptor activity, recombinant HEK293 cells, cAMP (HTRF), agonist NECA. The note with it: read-out: Functional A2B receptor activity, HEK293, cAMP, IC50. In outline: as §2

T2 sequence (P29274 whole entry): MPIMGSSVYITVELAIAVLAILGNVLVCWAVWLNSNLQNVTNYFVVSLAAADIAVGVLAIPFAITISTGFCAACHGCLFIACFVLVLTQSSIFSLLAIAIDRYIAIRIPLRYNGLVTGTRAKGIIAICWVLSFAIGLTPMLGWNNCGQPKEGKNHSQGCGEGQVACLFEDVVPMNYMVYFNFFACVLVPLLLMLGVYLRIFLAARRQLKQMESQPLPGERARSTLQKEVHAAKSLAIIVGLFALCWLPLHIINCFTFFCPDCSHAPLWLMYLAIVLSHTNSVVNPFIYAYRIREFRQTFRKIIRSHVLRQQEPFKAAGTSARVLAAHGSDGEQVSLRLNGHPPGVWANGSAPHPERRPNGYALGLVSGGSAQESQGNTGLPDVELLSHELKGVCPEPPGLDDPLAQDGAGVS

Regarding `COc1ccc(-c2ccccc2)c2sc(NC(=O)NCCN3CCCCC3)nc12` [drawing 206], in the experiment on mouse Pan T cells, the half-inhibitory concentration (IC50) is above 1000 nM.
With `COc1ccc(N2CCOCC2)c2sc(NC(=O)N3CCC4(CCCO4)CC3)nc12` [drawing 209], the IC50 in the experiment on mouse Pan T cells was below 1000 nM.
For `COc1cnc(C2CCOCC2)c2sc(NC(=O)N3CCC(O)CC3)nc12` [drawing 210], the IC50 with mouse Pan T cells is below 1000 nM.
Consider `COc1nc(F)c(-c2ccccc2)c2sc(NC(=O)N3CC[C@@]4(CCCOC4)C3)nc12` [Compound 13, (5S)-N-{6-fluoro-4-methoxy-7-phenyl-[1,3]thiazolo[4,5-c]pyridin-2-yl}-7-oxa-2-azaspiro[4.5]decane-2-carboxamide], for which the IC50 on human A1 receptor is below 1000 nM; at human A2A receptor [1], below 10 nM; at human A3 receptor, above 1000 nM; with mouse Pan T cells, below 10 nM; at human A2A receptor [2], below 10 nM; on human A2B receptor, below 10 nM.
In the case of `COc1nc(F)c(C2CCOCC2)c2sc(NC(=O)N3CCC4(CCCOC4)C3)nc12` (stereo not shown) [Compound 31, 7-Oxa-2-aza-spiro[4.5]decane-2-carboxylic acid [6-fluoro-4-methoxy-7-(tetrahydro-pyran-4-yl)-thiazolo[4,5-c]pyridin-2-yl]-amide], the IC50 at human A1 receptor is above 1000 nM; at human A2A receptor [1], below 10 nM; at human A3 receptor it was above 1000 nM; in the experiment with mouse Pan T cells, below 10 nM; at human A2A receptor [2], below 10 nM; at human A2B receptor it was below 100 nM.
With `COc1ncc([C@H]2COCCO2)c2sc(NC(=O)N3CCC4(CCOCC4)C3)nc12` [Compound 152, 8-Oxa-2-aza-spiro[4.5]decane-2-carboxylic acid ((S)-7-[1,4]dioxan-2-yl-4-methoxy-thiazolo[4,5-c]pyridin-2-yl)-amide], the IC50 is below 10 nM on human A2A receptor [1] and below 100 nM in the experiment on mouse Pan T cells.
Turning to `COc1ncc(-c2ccoc2)c2sc(NC(=O)N3CCC4(CCOCC4)C3)nc12` [Compound 52, 8-Oxa-2-aza-spiro[4.5]decane-2-carboxylic acid (7-furan-3-yl-4-methoxy-thiazolo[4,5-c]pyridin-2-yl)-amide], the 50% inhibitory concentration (IC50) on human A1 receptor was above 1000 nM; at human A3 receptor it was above 1000 nM; with mouse Pan T cells, below 100 nM; at human A2A receptor [2], below 10 nM; on human A2B receptor it was below 10 nM.
As to `COc1cnc(N2CCOCC2)c2sc(NC(=O)N3CCC(CO)CC3)nc12` [drawing 207], the IC50 in the experiment with mouse Pan T cells is below 1000 nM.
Turning to `COc1ncc(-c2cccc(Oc3cnn(C)c3)c2)c2sc(NC(=O)N3CCC4(CCOCC4)C3)nc12` [Compound 147, 8-Oxa-2-aza-spiro[4.5]decane-2-carboxylic acid {4-methoxy-7-[3-(1-methyl-1H-pyrazol-4-yloxy)-phenyl]-thiazolo[4,5-c]pyridin-2-yl}-amide], the IC50 on human A1 receptor is above 1000 nM; at human A3 receptor, below 1000 nM; in the experiment with mouse Pan T cells, below 10 nM; on human A2A receptor [2] it was below 10 nM; at human A2B receptor, below 10 nM.
As to `COc1cnc(N2CCOCC2)c2sc(NC(=O)N3CCCCC3)nc12` [drawing 212], the IC50 in the experiment with mouse Pan T cells is below 1000 nM.
Still for that read-out and setting: under `COc1cnc(N2CCOCC2)c2sc(NC(=O)N3CCC4(CCCO4)CC3)nc12` [drawing 208] stands above 1000 nM.
Consider `COc1ncc(C2=CCC(F)(F)CC2)c2sc(NC(=O)N3CCC4(CCOCC4)C3)nc12` [Compound 63, 8-Oxa-2-aza-spiro[4.5]decane-2-carboxylic acid [7-(4,4-difluoro-cyclohex-1-enyl)-4-methoxy-thiazolo[4,5-c]pyridin-2-yl]-amide], for which the IC50 is below 1000 nM on human A1 receptor; below 10 nM on human A2A receptor [1]; above 1000 nM at human A3 receptor; below 10 nM at human A2A receptor [2]; below 100 nM at human A2B receptor.
In the case of `COc1cnc(N2CCOCC2)c2sc(NC(=O)N3CCC4(CCN(C)C4=O)CC3)nc12` [drawing 205], the half-maximal inhibitory concentration (IC50) in the experiment on mouse Pan T cells is above 1000 nM.
Consider `COc1nc(F)c(C2CCOCC2)c2sc(NC(=O)N3CC[C@@]4(CCOC4)C3)nc12` [Compound 37, (R)-2-Oxa-7-aza-spiro[4.4]nonane-7-carboxylic acid [6-fluoro-4-methoxy-7-(tetrahydro-pyran-4-yl)-thiazolo[4,5-c]pyridin-2-yl]-amide], for which the IC50 at human A1 receptor is above 1000 nM; on human A2A receptor [1] it was below 10 nM; at human A3 receptor it was above 1000 nM; at human A2A receptor [2] it was below 10 nM; at human A2B receptor, below 100 nM.
As to `COc1ccc(N2CCOCC2)c2sc(NC(=O)N3CCCCC3)nc12` [drawing 211], the IC50 in the experiment on mouse Pan T cells is below 1000 nM.
Turning to `COc1ncc(-c2cnn(CC(F)F)c2)c2sc(NC(=O)N3CCC4(CCOCC4)C3)nc12` [Compound 74, 8-Oxa-2-aza-spiro[4.5]decane-2-carboxylic acid {7-[1-(2,2-difluoro-ethyl)-1H-pyrazol-4-yl]-4-methoxy-thiazolo[4,5-c]pyridin-2-yl}-amide], the half-maximal inhibitory concentration (IC50) is below 1000 nM on human A1 receptor; below 100 nM at human A2A receptor [1]; above 1000 nM at human A3 receptor; below 10 nM on human A2A receptor [2]; below 100 nM on human A2B receptor.
Consider `COc1ncc(C2=CCOCC2)c2sc(NC(=O)Nc3ccc(N4CCCC4=O)cc3)nc12` [Compound 89, 3-[7-(3,6-dihydro-2H-pyran-4-yl)-4-methoxy-[1,3]thiazolo[4,5-c]pyridin-2-yl]-1-[4-(2-oxopyrrolidin-1-yl)phenyl]urea], for which the IC50 at human A1 receptor was above 1000 nM; at human A2A receptor [1], below 10 nM; on human A3 receptor, above 1000 nM; at human A2A receptor [2], below 10 nM; at human A2B receptor it was below 100 nM.
Consider `COc1ncc(C2=CCCCC2)c2sc(NC(=O)N3CCC4(CCOCC4)C3)nc12` [Compound 59, 8-Oxa-2-aza-spiro[4.5]decane-2-carboxylic acid (7-cyclohex-1-enyl-4-methoxy-thiazolo[4,5-c]pyridin-2-yl)-amide], for which the IC50 at human A1 receptor was below 1000 nM; at human A2A receptor [1] it was below 10 nM; on human A3 receptor, above 1000 nM; on human A2A receptor [2], below 10 nM; at human A2B receptor, below 100 nM.
`COc1cnc(N2CCOCC2)c2sc(NC(=O)N3CCOCC3)nc12` [drawing 213]: the IC50 with mouse Pan T cells was above 1000 nM.

A word on the IC50: it is the concentration that gives 50% inhibition.
